# Laboratory results: US9642821B2, “MiR-182 in the diagnosis and treatment of cancer” (Dana-Farber Cancer Institute, Inc., priority 2010, dated 2017)
# Experiments:
# Assay type in all cases: cell-based
# MCF7 cells = test: TPA treatment of MCF7 cells, cell cycle analysis; conditions: breast cancer lines (MCF7), 100 nM TPA
# Protocol: (§1) HL60 cells (0.5×10^6 cells/ml) were differentiated either to neutrophils with 1.3% DMSO for 8 days or to macrophages with 16 nM tetradecanoyl phorbol acetate (TPA) for 3 days; K562 cells (0.5×10^6 cells/ml) to megakaryocytes with 16 nM phorbol myristate acetate (PMA) for 3 days or to erythrocytes with […] for 4 days. HL60 and K562 cells were grown in DMEM or RPMI-1640, respectively, supplemented with 10% (v/v) FBS. MCF-7 cells (10^6 cells/6 cm dish) were differentiated with 100 nM TPA for 3 days in Dulbecco's Modified Eagle Medium (DMEM) with 10% (v/v) fetal bovine serum (FBS) (Cunliffe et al., Cancer Res., 63:7158-66 (2003). The breast cancer lines and human mammary epithelial cells used in experiments shown in FIGS. 6 and 10, were cultured in media according to protocols from the American Type Culture Collection (ATCC®; Manassas, Va.) (www.atcc.org/).
# MCF-7 cells were differentiated with 100 nM TPA. At day 0, 1, 2, and 3 cells were collected, fixed with 70% cold ethanol and stored at −20° C. Permeabilized cells were centrifuged, washed once with PBS, and incubated for 30 minutes in propidium iodide (PI)/RNase Staining Buffer (BD Pharmingen, San Diego, Calif.) at 25° C. before flow cytometric analysis.
# HL60 and K562 cells = test: TPA differentiation of blood cells, miR-182 qRT-PCR; conditions: TPA-treated blood cells
# Protocol: as §1
# Analysis of the miRNAs of the miR-183 cluster was conducted using qPCR using the TaqMan MicroRNA Assay from Applied Biosystems as per the manufacturer's instructions and normalized to RNU6B snRNA. Analysis of mRNA expression was carried out with qPCR using the SYBR Green master mix (Applied Biosystems, Foster City, Calif.) according to the manufacture's manual and the BioRad iCycler. […]
# PARP = PARP activity assay (universal PARP chemiluminescent kit) in MDA-MB231 cells; conditions: MDA-MB231, increasing concentrations, 100 μM H2O2
# Protocol: MDA-MB231 cells (2×10^6) were plated in 10-cm tissue culture dishes overnight in duplicates. The cells were exposed to the indicated concentrations of 4-Amino-1,8-naphthalimide in phosphate buffered saline (PBS) for 10 minutes on ice followed by 100 μM H2O2 for 20 minutes on ice. The cells were then washed thrice in ice cold PBS for 8-10 minutes and incubated in complete medium with the indicated concentrations of 4-Amino-1,8-naphthalimide at 37° C. The cells were then lysed and PARP activity was measured using the universal PARP chemiluminescent assay kit (Trevigen, Gaithersburg, Md.) as per the manufacturer's instructions.
# BRCA1 transcript = test: Immunoprecipitation of HA-AGO1/miRNA complex, qRT-PCR of bound transcripts, MDA-MB231; conditions: MDA-MB231, HA-AGO1 IP, normalized to 5S rRNA
# Protocol: miR-182 cDNA and miR-17 cDNA was cloned from HL60 cDNA in pcDNA3.1-Puro expression vector (Invitrogen, Carlsbad, Calif.) using the following primers: […]
# MDA-MB231 cells (0.5×10^6 cells) were co-transfected with 1 μg of HA-AGO1 (pIRES-FLAG/HA vector, Addgene) and 0.5 μg of expression vector for miR-182/miR-17 or miR-scr using Lipofectamine 2000. After 2 days cells were harvested using 400 μl lysis buffer (100 mM KCl, 5 mM MgCl2, 10 mM Hepes, pH 7.0, 0.5% Nonidet P-40) containing freshly added RNase inhibitor, RNaseOUT (Invitrogen, Carlsbad, Calif.) and Protease Inhibitor Cocktail (Roche, Basel, Switzerland). After centrifugation, a 50 μl aliquot of supernatant was taken as the input for subsequent RNA extraction. The remaining supernatant was gently shaken with HA-beads (HA-probe Santa Cruz sc-7392) for 4 h at 4° C. in spin columns (Pierce Spin Columns-Screw Cap). The columns were drained, washed and the retained beads were treated with 5 U DNaseI in NT2 buffer (50 mM Tris, pH7.4, 150 mM NaCl, 1 mM MgCl2, 0.05% Nonidet P-40) for 10 minutes at 37° C., washed with NT2 buffer and then treated with Proteinase K in NT2 buffer plus 1% SDS for 30 minutes at 55° C. […] RNA was reverse transcribed (see RNA isolation) and analyzed with qPCR for enrichment of mRNA of miR-182/miR-17 predicted targets.
# BRCA1 = BRCA1 expression after ectopic miRNA overexpression in HL60 cells (immunoblot, qPCR); conditions: HL60 cells transiently transfected with expression vectors, Western blot
# Protocol: Analysis of the miRNAs of the miR-183 cluster was conducted using qPCR using the TaqMan MicroRNA Assay from Applied Biosystems as per the manufacturer's instructions and normalized to RNU6B snRNA. Analysis of mRNA expression was carried out with qPCR using the SYBR Green master mix (Applied Biosystems, Foster City, Calif.) according to the manufacture's manual and the BioRad iCycler. The mRNA (1 μg) was reverse transcribed with 50 ng random primers using 100 U moloney murine leukemia virus (MMLV) reverse transcriptase (Epicentre, Madison, Wis.) according to the manufacturer's manual. Results were normalized to 5SrRNA or GAPDH.
# In each experiment, where Western blot analysis was done, a fraction of 0.2−0.5×10^6 cells was taken out at day, 3 or 4, post-transfection. Breast cancer cell lines were collected from 6 well tissue culture plates (0.5-1×10^6 cells). Cells lysates were prepared in RIPA buffer (150 mM NaCl, 1% NP-40, 0.5% sodium deoxycholate, 0.1% SDS, 50 mM Tris, pH 8.0). Lysates of 0.1×10^6 cells of each sample plus loading buffer were loaded on 8% SDS-PAGE gels, semi-dry transferred on nitrocellulose membrane, and probed with anti-BRCA1 antibody at a 1:500 dilution (CALBIOCHEM, MS110) and anti-tubulin antibody at a 1:10,000 dilution (Sigma, Clone B-5-1-2).
compound,measurement,setting,value
12-O-tetradecanoylphorbol-13-acetate [TPA],cell cycle state,MCF7 cells,leads to a post-mitotic state
same,miR-182 expression,HL60 and K562 cells,induces expression of miR-182
"Nc1ccc2c3c(cccc13)C(=O)NC2=O [ANI, 4-Amino-1,8-naphthalimide]",PARP activity,PARP,PARP inhibition was confirmed
same,PARP activity,"PARP; listed as 4-Amino-1,8-naphthalimide",inhibits PARP activity
miR-17: another miRNA predicted to target BRCA1; expression vector [reference compound],association of miRNA/AGO1 complex with BRCA1 transcript,BRCA1 transcript,did not associate
"miR-183: miRNA of cluster-183, co-expressed with miR-182; expression vector (GUAUGGCACUGGUAGAAUUCACUGU; listed as Homo sapiens) [reference compound]",BRCA1 protein level,BRCA1,did not affect
